Results: patent US8324226B2, “Therapeutic oxy-phenyl-aryl compounds and their use” (Cancer Research Technology Limited, priority 2007, dated 2012)
Where “and” joins values, the source holds several entries; their conditions need not be identical. Equal entries are not always repeated. Where two headings read alike, the source gives them in different places.

Target: T1, CHK2 (Homo sapiens, UniProt O96017)
T1 construct: made in house
Assay: CHK2 kinase activity assay (DELFIA, phosphorylation of a CDC25C peptide)
Format: biochemical
Conditions: ATP 30 μM, CHK2 1 nM, read-out: IC50, inhibition of CHK2 kinase activity in vitro

T1 sequence (O96017 whole entry): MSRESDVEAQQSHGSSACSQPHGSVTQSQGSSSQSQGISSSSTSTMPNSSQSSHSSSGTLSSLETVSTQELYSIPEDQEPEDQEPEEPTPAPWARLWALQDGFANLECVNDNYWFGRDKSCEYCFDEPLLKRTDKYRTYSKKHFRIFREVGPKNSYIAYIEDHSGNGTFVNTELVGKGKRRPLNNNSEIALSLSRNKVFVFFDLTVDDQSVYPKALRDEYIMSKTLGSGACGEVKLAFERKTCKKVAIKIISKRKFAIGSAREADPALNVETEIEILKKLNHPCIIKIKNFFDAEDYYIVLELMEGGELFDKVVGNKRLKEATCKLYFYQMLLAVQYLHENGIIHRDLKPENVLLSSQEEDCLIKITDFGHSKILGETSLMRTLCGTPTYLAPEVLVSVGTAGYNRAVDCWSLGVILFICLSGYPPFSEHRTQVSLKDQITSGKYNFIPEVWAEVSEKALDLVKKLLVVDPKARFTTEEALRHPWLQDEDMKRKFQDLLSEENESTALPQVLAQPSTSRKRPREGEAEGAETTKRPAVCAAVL

Row | IC50 (first set of tested compounds) | IC50 (following further studies) | Compound
1 | < 3 µM | ≤ 0.3 µM | CC(C)N(C)C(=O)[C@H]1C[C@H](Nc2nc(-c3ccccc3O)nc3ccccc23)CN1 [Compound A-048, (2R,4S)-4-(2-(2-Hydroxyphenyl)quinazolin-4-ylamino)-N-isopropyl-N-methylpyrrolidine-2-carboxamide]
2 | < 3 µM | 0.3 to 3 µM | O=C([C@H]1C[C@H](Nc2nc(-c3ccccc3O)nc3ccccc23)CN1)N1CCC1 [Compound A-049, Azetidin-1-yl((2R,4S)-4-(2-(2-hydroxyphenyl)quinazolin-4-ylamino)pyrrolidin-2-yl)methanone]
3 | < 3 µM | ≤ 0.3 µM | CCN(C)C(=O)[C@H]1C[C@H](Nc2nc(-c3ccccc3O)nc3ccccc23)CN1 [Compound A-050, (2R,4S)-N-Ethyl-4-(2-(2-hydroxyphenyl)quinazolin-4-ylamino)-N-methylpyrrolidine-2-carboxamide]
4 | < 3 µM | 0.3 to 3 µM | CCNC(=O)[C@H]1C[C@H](Nc2nc(-c3ccccc3O)nc3ccccc23)CN1 [Compound A-051, (2R,4S)-N-Ethyl-4-(2-(2-hydroxyphenyl)quinazolin-4-ylamino)pyrrolidine-2-carboxamide]
5 | < 3 µM | ≤ 0.3 µM | OCC#Cc1ccc2nc(-c3ccccc3O)nc(N[C@H]3CCNC3)c2c1 [Compound A-052, (S)-2-(6-(3-hydroxyprop-1-ynyl)-4-(pyrrolidin-3-ylamino)quinazolin-2-yl)phenol]
6 | < 3 µM | ≤ 0.3 µM | OCC#Cc1ccc2c(N[C@H]3CCNC3)nc(-c3ccccc3O)nc2c1 [Compound A-054, (S)-2-(7-(3-Hydroxyprop-1-ynyl)-4-(pyrrolidin-3-ylamino)quinazolin-2-yl)phenol]
7 | – | ≤ 0.3 µM | Oc1ccc(Cl)cc1-c1nc(NC2CCCNCC2)c2ccccc2n1 (centres unmarked) [Compound A-057, 2-(4-(Azepan-4-ylamino)quinazolin-2-yl)-4-chlorophenol]
8 | – | ≤ 0.3 µM | Oc1ccc(Cl)cc1-c1nc(NC2CCCCNC2)c2ccccc2n1 (centres unmarked) [Compound A-058, 2-(4-(Azepan-3-ylamino)quinazolin-2-yl)-4-chlorophenol]
9 | – | ≤ 0.3 µM | Oc1ccc(F)cc1-c1nc(NC2CCCCNC2)c2ccccc2n1 (centres unmarked) [Compound A-059, 2-(4-(Azepan-3-ylamino)quinazolin-2-yl)-4-fluorophenol]
10 | – | ≤ 0.3 µM | Oc1ccc(F)cc1-c1nc(NC2CCCNCC2)c2ccccc2n1 (centres unmarked) [Compound A-060, 2-(4-(Azepan-4-ylamino)quinazolin-2-yl)-4-fluorophenol]
11 | – | ≤ 0.3 µM | CN(C)C(=O)[C@H]1C[C@H](Nc2nc(-c3cc(F)ccc3O)nc3cc(CCCO)ccc23)CN1 [Compound A-061, (2R,4S)-4-(2-(5-Fluoro-2-hydroxyphenyl)-7-(3-hydroxypropyl)quinazolin-4-ylamino)-N,N-dimethylpyrrolidine-2-carboxamide]
12 | – | ≤ 0.3 µM | Oc1ccccc1-c1nc(N[C@H]2CCNC2)c2ccc(Cl)cc2n1 [Compound A-062, (S)-2-(7-Chloro-4-(pyrrolidin-3-ylamino)quinazolin-2-yl)phenol]
13 | – | 3 to 30 µM | O=C(O)C1(Nc2nc(-c3cc(Cl)ccc3O)nc3ccccc23)CCNC1 (centres unmarked) [Compound A-064, 3-(2-(5-Chloro-2-hydroxyphenyl)quinazolin-4-ylamino)pyrrolidine-3-carboxylic acid]
14 | – | ≤ 0.3 µM | Oc1ccccc1-c1nc(N[C@H]2CCNC2)c2ccc(-c3cn[nH]c3)cc2n1 [Compound A-065, (S)-2-(7-(1H-Pyrazol-4-yl)-4-(pyrrolidin-3-ylamino)quinazolin-2-yl)phenol]
15 | – | ≤ 0.3 µM | Cn1cc(-c2ccc3c(N[C@H]4CCNC4)nc(-c4ccccc4O)nc3c2)cn1 [Compound A-066, (S)-2-(7-(1-Methyl-1H-pyrazol-4-yl)-4-(pyrrolidin-3-ylamino)quinazolin-2-yl)phenol]
16 | – | ≤ 0.3 µM | Oc1ccc(F)cc1-c1nc(N[C@H]2CCNC2)c2ccc(-c3cn[nH]c3)cc2n1 [Compound A-068, (S)-2-(7-(1H-Pyrazol-4-yl)-4-(pyrrolidin-3-ylamino)quinazolin-2-yl)-4-fluorophenol]
17 | – | ≤ 0.3 µM | OCCCc1ccc2c(N[C@H]3CCNC3)nc(-c3cc(F)ccc3O)nc2c1 [Compound A-071, (S)-4-Fluoro-2-(7-(3-hydroxypropyl)-4-(pyrrolidin-3-ylamino)quinazolin-2-yl)phenol]
18 | – | ≤ 0.3 µM | OCC#Cc1ccc2c(N[C@H]3CCNC3)nc(-c3cc(F)ccc3O)nc2c1 [Compound A-072, (S)-4-Fluoro-2-(7-(3-hydroxyprop-1-ynyl)-4-(pyrrolidin-3-ylamino)quinazolin-2-yl)phenol]
19 | – | ≤ 0.3 µM | COc1ccc2nc(-c3cc(F)ccc3O)nc(N[C@H]3CCNC3)c2c1 [Compound A-073, (S)-4-Fluoro-2-(6-methoxy-4-(pyrrolidin-3-ylamino)quinazolin-2-yl)phenol]
20 | – | ≤ 0.3 µM | COc1ccc2c(N[C@H]3CCNC3)nc(-c3cc(F)ccc3O)nc2c1 [Compound A-074, (S)-4-Fluoro-2-(7-methoxy-4-(pyrrolidin-3-ylamino)quinazolin-2-yl)phenol]

Row | IC50 (first set of tested compounds) | IC50 (following further studies) | Compound
21 | – | ≤ 0.3 µM | COC/C=C/c1ccc2c(N[C@H]3CCNC3)nc(-c3ccccc3O)nc2c1 [Compound A-078, (S,E)-2-(7-(3-Methoxyprop-1-enyl)-4-(pyrrolidin-3-ylamino)quinazolin-2-yl)phenol]
22 | – | ≤ 0.3 µM | COCCCc1ccc2c(N[C@H]3CCNC3)nc(-c3ccccc3O)nc2c1 [Compound A-079, (S)-2-(7-(3-Methoxypropyl)-4-(pyrrolidin-3-ylamino)quinazolin-2-yl)phenol]
23 | – | ≤ 0.3 µM | COc1ccc2c(N[C@@H]3CN[C@@H](CO)C3)nc(-c3cc(F)ccc3O)nc2c1 [Compound A-087, 4-Fluoro-2-(4-((3S,5R)-5-(hydroxymethyl)pyrrolidin-3-ylamino)-7-methoxyquinazolin-2-yl)phenol]
24 | – | ≤ 0.3 µM | CC(C)(O)C#Cc1ccc2c(N[C@H]3CCNC3)nc(-c3cc(F)ccc3O)nc2c1 [Compound A-093, (S)-4-Fluoro-2-(7-(3-hydroxy-3-methylbut-1-ynyl)-4-(pyrrolidin-3-ylamino)quinazolin-2-yl)phenol]
25 | – | ≤ 0.3 µM | COCCOc1ccc2nc(-c3cc(F)ccc3O)nc(N[C@H]3CCNC3)c2c1 [Compound A-095, (S)-4-Fluoro-2-(6-(2-methoxyethoxy)-4-(pyrrolidin-3-ylamino)quinazolin-2-yl)phenol]
26 | – | ≤ 0.3 µM | CC(C)(O)CCc1ccc2c(N[C@H]3CCNC3)nc(-c3cc(F)ccc3O)nc2c1 [Compound A-097, (S)-4-Fluoro-2-(7-(3-hydroxy-3-methylbutyl)-4-(pyrrolidin-3-ylamino)quinazolin-2-yl)phenol]
27 | – | 3 to 30 µM | Oc1ccc(-c2ccc(F)cc2)cc1-c1nc(N[C@H]2CCNC2)c2ccccc2n1 [Compound A-100, (S)-4′-Fluoro-3-(4-(pyrrolidin-3-ylamino)quinazolin-2-yl)biphenyl-4-ol]
28 | – | 3 to 30 µM | NC(=O)c1ccc(-c2ccc(O)c(-c3nc(N[C@H]4CCNC4)c4ccccc4n3)c2)cc1 [Compound A-101, (S)-4′-Hydroxy-3′-(4-(pyrrolidin-3-ylamino)quinazolin-2-yl)biphenyl-4-carboxamide]
29 | – | ≤ 0.3 µM | CC(C)(O)CCc1ccc2nc(-c3cc(F)ccc3O)nc(N[C@H]3CCNC3)c2c1 [Compound A-102, (S)-4-Fluoro-2-(6-(3-hydroxy-3-methylbutyl)-4-(pyrrolidin-3-ylamino)quinazolin-2-yl)phenol]
30 | – | ≤ 0.3 µM | COCCOc1cc2c(N[C@H]3CCNC3)nc(-c3cc(F)ccc3O)nc2cc1OC [Compound A-103, (S)-4-Fluoro-2-(7-methoxy-6-(2-methoxyethoxy)-4-(pyrrolidin-3-ylamino)quinazolin-2-yl)phenol]
31 | – | ≤ 0.3 µM | COCCOc1cc2nc(-c3cc(F)ccc3O)nc(N[C@H]3CCNC3)c2cc1OCCOC [Compound A-104, (S)-2-(6,7-bis(2-Methoxyethoxy)-4-(pyrrolidin-3-ylamino)quinazolin-2-yl)-4-fluorophenol]
32 | – | 0.3 to 3 µM | Oc1ccc(-c2cccc(F)c2)cc1-c1nc(N[C@H]2CCNC2)c2ccccc2n1 [Compound A-107, (S)-3′-Fluoro-3-(4-(pyrrolidin-3-ylamino)quinazolin-2-yl)biphenyl-4-ol]
33 | – | 0.3 to 3 µM | Oc1ccc(-c2ccsc2)cc1-c1nc(N[C@H]2CCNC2)c2ccccc2n1 [Compound A-108, (S)-2-(4-(Pyrrolidin-3-ylamino)quinazolin-2-yl)-4-(thiophen-3-yl)phenol]
34 | – | 0.3 to 3 µM | CC(C)(O)C#Cc1ccc2nc(-c3cc(F)ccc3O)nc(N[C@H]3CCNC3)c2c1 [Compound A-109, (S)-4-Fluoro-2-(6-(3-hydroxy-3-methylbut-1-ynyl)-4-(pyrrolidin-3-ylamino)quinazolin-2-yl)phenol]
35 | – | ≤ 0.3 µM | Nc1nnc(-c2ccc(O)c(-c3nc(N[C@H]4CCNC4)c4ccccc4n3)c2)s1 [Compound A-110, (S)-4-(5-Amino-1,3,4-thiadiazol-2-yl)-2-(4-(pyrrolidin-3-ylamino)quinazolin-2-yl)phenol]
36 | – | ≤ 0.3 µM | Oc1ccc(F)cc1-c1nc(N[C@H]2CCNC2)c2ccc(F)cc2n1 [Compound A-114, (S)-4-Fluoro-2-(7-fluoro-4-(pyrrolidin-3-ylamino)quinazolin-2-yl)phenol]
37 | 3 to 30 µM | 3 to 30 µM | NC1CCC(Nc2nc(-c3ccccc3O)nc3ccccc23)CC1 (centres unmarked) [Compound B-001, 2-[4-(4-Aminocyclohexylamino)-quinazolin-2-yl]-phenol]
38 | < 3 µM | 0.3 to 3 µM | NC1CCCC(Nc2nc(-c3ccccc3O)nc3ccccc23)C1 (centres unmarked) [Compound B-004, 2-[4-(3-Aminocyclohexylamino)-quinazolin-2-yl]-phenol]
39 | 3 to 30 µM | 3 to 30 µM and 4.4 µM | Oc1ccccc1-c1cc(N[C@H]2CCNC2)c2ccccc2n1 [Compound C-001, (S)-2-(4-(Pyrrolidin-3-ylamino)quinolin-2-yl)phenol]
40 | 3 to 30 µM | 3 to 30 µM and 8.2 µM | Oc1ccccc1-c1nccc(N[C@H]2CCNC2)n1 [Compound D-002]
